# Results reported in US8313771B2, “Phosphazene hydrogels with chemical corss-link, preparation method thereof and use thereof” (Korea Institute of Science and Technology, priority 2007, dated 2012).
# Conditions: pH 7.4
row,Max. gelling temp.,Substance
1,32 °C,poly[(isoleucine ethyl ester)(aminomethoxypolyethylene glycol 550)(cysteine ethyl ester)phosphazene] [Example 10]
2,28 °C,[(isoleucine ethyl ester)(aminomethoxypolyethylene glycol 550)(aminoethylmethacrylate)phosphazene] [Example 2]
3,34 °C,poly[(isoleucine ethyl ester)(aminomethoxypolyethylene glycol 550)(tyramine)phosphazene] [Example 18]
4,39 °C,poly[(isoleucine ethyl ester)(aminomethoxypolyethylene glycol 550)(aminoethylmethacrylate)phosphazene] [Example 4]
